Source: patent publication US12540143B2, “Methods and compositions for targeted protein degradation” (Ranok Therapeutics (Hangzhou) Co. Ltd., priority 2019, dated 2026)
Structures can show the parent of a compound that is named as a salt. Where two headings read alike, the source gives them in different places.

Columns and labels:
HSP90α = HSP90α (Homo sapiens, UniProt P07900); experiment: HSP90α Binding Fluorescent Polarization (FP) Assay; settings: competition with FITC-geldanamycin; read-out: HSP90 Binding Potency
Procedure: HSP90α Binding Fluorescent Polarization (FP) Assay
A master mix was prepared with assay buffer, BSA and FITC-geldanamycin. In a 96-well plate, a serial 3-fold dilution of each compound was prepared ranging from 40 μM down until 2.0 nM. Also in a 96-well plate, recombinant HSP90α protein was diluted to 28 μg/ml. Then, in a 384-well plate, 10 μl of master mix and 5 μl of compound dilution were added per well to duplicate wells and mixed by brief shaking. Then 5 μl of diluted HSP90α protein was added per well, mixed by brief shaking, incubated at 25° C. for 30, 60 and 120 min and fluorescence was measured on an En Vision Plate Reader. Background-subtracted mP values were calculated from En Vision raw data and a four-parameter “log[inhibitor] vs. response” curve was fitted using GraphPad Prism 7.0.

MV4-11 cells = experiment: MV4-11 Cytotoxicity Assay; type: cell-based, human; settings: Homo sapiens, read-out: MV4-11 cytotoxicity
BRD4 = molecular target: T1, BRD4 (Homo sapiens, UniProt O60885); experiment: BRD4 Degradation Flow Cytometry Assay in MV4-11 cells; type: cell-based; settings: for Percentage BRD4 degradation vs untreated / BRD4 degradation (in words) / BRD4 (% of control): MV4-11 cells; for Percentage BRD4 degradation vs untreated / BRD4 (% of control): 24 hr; for Percentage BRD4 degradation vs untreated: highest degradation percentage observed at concentrations between 40-1000 nM; for BRD4 degradation (in words): flow cytometry
T1 construct: endogenous in cells; host or cells: MV4-11
Procedure: Protein Degradation Flow Cytometry
(§1) MV4-11 cells were plated in a 24-well tissue culture plate at a density of 350,000 cells/450 μL/well and incubated in 37° C./5% CO2 for 1 hr. Cells were then treated with compounds at various concentrations and incubated in 37° C./5% CO2 for 24 hr. Cells were harvested, washed once, counted and 200 μL of 1% paraformaldehyde/PBS was added and incubated for 15 min at room temperature. 200 μL of 1×PBS/0.4% Triton X-100 was added and incubated for 15 min at 4° C. Cells were washed three times and resuspended in 50 μL of 1×PBS/0.2% Triton X-100. 2 μL/10^6 cells of anti-BRD4 antibody (ABCAM, #128874) was added and mixed by pipetting up and down. Cells were incubated for 30 min at room temperature in the dark, washed three times and resuspended in 50 μL of 1×PBS/0.2% Triton X-100. Goat anti-rabbit IgG H&L antibody (1:2000 dilution) was added and mixed by pipetting up and down and incubated for 30 min at room temperature in the dark. Finally, cells were washed three times and resuspended in 200 μL of PBS for flow cytometric analysis.

MYC protein = experiment: MYC Protein Expression HTRF Assay in MV4-11 cells; type: cell-based; settings: Homo sapiens, 24 hr treatment
Procedure: MYC protein expression was measured using the Human c-Myc Cell-based Assay Kit (Cisbio, #63ADK053PEG), a homogeneous time resolved fluorescence (HTRF) assay. […] Cells were collected by centrifugation, supernatant removed by aspiration and 10 μL of lysis buffer was added and incubated for 45 min at room temperature while shaking. In a 384-well plate, 10 μL of cell lysate/well was combined with 10 μL of premixed antibody solution containing anti-human MYC-Eu3+ Cryptate prepared in detection buffer and incubated overnight at room temperature, whereupon the signal was measured. The ratio of the acceptor and donor emission signals for each individual well were calculated (ratio=665 nm/620 nm[…]).

BRD2 = molecular target: T2, BRD2 (Homo sapiens, UniProt P25440); experiment: BET Protein Family Degradation Flow Cytometry Assay (BRD2) in MV4-11 cells; type: cell-based; settings: 24 hr
T2 construct: endogenous in cells; host or cells: MV4-11
T2 sequence (P25440 whole entry): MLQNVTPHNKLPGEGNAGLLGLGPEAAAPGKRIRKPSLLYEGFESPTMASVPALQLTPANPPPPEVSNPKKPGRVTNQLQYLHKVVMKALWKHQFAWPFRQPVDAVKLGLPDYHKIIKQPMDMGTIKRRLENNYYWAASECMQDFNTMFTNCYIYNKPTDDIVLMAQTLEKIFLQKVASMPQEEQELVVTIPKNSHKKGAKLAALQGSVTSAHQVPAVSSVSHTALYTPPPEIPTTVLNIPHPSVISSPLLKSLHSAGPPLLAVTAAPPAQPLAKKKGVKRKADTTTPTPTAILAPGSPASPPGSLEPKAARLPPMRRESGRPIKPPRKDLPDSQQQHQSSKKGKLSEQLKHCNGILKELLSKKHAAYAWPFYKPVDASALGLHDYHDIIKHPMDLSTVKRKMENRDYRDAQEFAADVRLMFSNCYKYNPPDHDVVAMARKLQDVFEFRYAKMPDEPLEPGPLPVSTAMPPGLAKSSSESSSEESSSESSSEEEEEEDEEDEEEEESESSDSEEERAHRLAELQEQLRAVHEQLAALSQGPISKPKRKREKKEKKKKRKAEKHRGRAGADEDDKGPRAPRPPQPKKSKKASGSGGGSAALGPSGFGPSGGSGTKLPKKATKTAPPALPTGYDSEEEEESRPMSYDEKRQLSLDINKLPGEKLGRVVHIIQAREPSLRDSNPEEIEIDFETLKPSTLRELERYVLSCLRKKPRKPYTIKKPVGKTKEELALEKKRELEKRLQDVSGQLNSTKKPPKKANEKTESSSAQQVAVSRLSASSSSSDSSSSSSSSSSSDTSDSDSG
Procedure: as §1
(§2) Similar western blotting experiments of for BRD2 and BRD3 were performed in MV4-11 cells using anti-BRD2 (Cell Signaling Technology, #139690) and anti-BRD3 (Cell Signaling Technology, #50818).

BRD3 = molecular target: T3, BRD3 (Homo sapiens, UniProt Q15059); experiment: BET Protein Family Degradation Flow Cytometry Assay (BRD3) in MV4-11 cells; type: cell-based; settings: 24 hr
T3 construct: endogenous in cells; host or cells: MV4-11
T3 sequence (Q15059 whole entry): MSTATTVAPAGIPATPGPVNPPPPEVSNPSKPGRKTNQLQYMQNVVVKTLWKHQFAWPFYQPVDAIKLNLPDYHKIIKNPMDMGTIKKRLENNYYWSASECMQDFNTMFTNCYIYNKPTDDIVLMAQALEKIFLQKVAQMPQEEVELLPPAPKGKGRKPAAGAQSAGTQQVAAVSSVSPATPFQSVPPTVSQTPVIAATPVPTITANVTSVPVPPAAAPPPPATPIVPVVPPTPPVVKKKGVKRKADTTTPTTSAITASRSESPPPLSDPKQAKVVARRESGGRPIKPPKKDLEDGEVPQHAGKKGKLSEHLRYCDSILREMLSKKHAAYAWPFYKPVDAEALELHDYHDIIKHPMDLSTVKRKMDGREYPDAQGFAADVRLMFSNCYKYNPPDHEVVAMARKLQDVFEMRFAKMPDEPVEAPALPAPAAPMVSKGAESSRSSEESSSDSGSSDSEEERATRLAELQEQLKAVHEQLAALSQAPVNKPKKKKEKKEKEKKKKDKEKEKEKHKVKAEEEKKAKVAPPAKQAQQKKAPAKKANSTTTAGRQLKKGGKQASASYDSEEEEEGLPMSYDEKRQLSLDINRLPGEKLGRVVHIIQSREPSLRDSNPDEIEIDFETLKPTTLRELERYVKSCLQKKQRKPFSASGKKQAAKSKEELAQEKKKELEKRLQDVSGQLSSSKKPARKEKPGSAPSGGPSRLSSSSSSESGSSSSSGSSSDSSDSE
Procedure: as §1, §2

BRD4 (BD1+BD2) = molecular target: T4, BRD4 (BD1+BD2) (Homo sapiens, UniProt O60885); experiment: BRD4 (BD1 + BD2) Binding HTRF Assay; settings: read-out: BRD4 Binding Potency
T4 construct: 1.8 μg/ml recombinant BRD4 (BD1+BD2 domains) protein
Procedure: A master mix was prepared with assay buffer, 1.8 μg/ml recombinant BRD4 (BD1+BD2 domains) protein, and 200-fold dilutions of Tb-labeled donor and dye-labeled acceptor. 40-fold dilutions of acetylated and non-acetylated ligands were prepared in 1×BRD TR-FRET assay buffer. Also, a serial 3-fold dilution of each compound was prepared ranging from 40 μM down until 2.0 nM. In a 384-well plate, 5 μl diluted ligand and 5 μl of compound dilution were added per well to duplicate wells and mixed by brief shaking. Then 10 μl of master mix was added per well, mixed by brief shaking, incubated at 25° C. for 2 hr and fluorescence was measured on an En Vision Plate Reader. The 665 nm/615 nm ratio was calculated from EnVision raw data. Data were normalized using whole-plate averages of “positive” and “negative” readings. A four-parameter “log[inhibitor] vs. response” curve was fitted using GraphPad Prism 7.0.

[1] = system: SU-DHL-4 diffuse large B-cell lymphoma xenograft; experiment: SU-DHL-4 DLBCL xenograft model in mice
Procedure: 10 μL the cell proliferation reagent CCK-8 (WST-8) was added into each well and incubated at 37° C./5% CO2 for 3-4 hr and the absorbance at 450 nm measured with an En Vision Plate Reader.
5×10^6 MV-4-11 or 1×10^7 SU-DHL-4 cells were collected and re-suspended in 0.1 mL of serum-free media with Matrigel (1:1 v/v) per mouse for subcutaneous inoculation in isoflurane anesthetized male BALB/c nude or C.B-17 scid mice, respectively (treated in accordance with AAALAC animal welfare guidelines). When the average tumor volumes reached 100-200 mm^3, tumor volume outliers were removed and the remaining animals randomly divided into groups of 6-8 with similar average tumor volumes in each group. […] Animals were intravenously dosed at 25 mg/kg, 50 mg/kg or 100 mg/kg 1×/week for 3 or 4 weeks. The appearance and behavior of each mouse was observed and recorded daily. Body weights and tumor volumes were measured and recorded every 2-4 days and the results were expressed as group means±SEM. Pairwise statistical comparisons between groups were performed by one-way ANOVA, and p<0.05 was considered statistically significant.

[2] = system: MV4-11 acute myeloid leukemia xenograft; experiment: MV4-11 AML xenograft model in mice; settings: 25 mg/kg intraperitoneal 1×/day
Procedure: MV4-11 cells were plated in a 96-well tissue culture plate at a density of 4,500 cells/90 μL/well and incubated at 37° C./5% CO2 for 24 hr. Cells were then treated with compounds at various concentrations (a 10-point, 3-fold serial dilution series starting at 20 μM) with a final concentration of 0.5% DMSO/well and then incubated in 37° C./5% CO2 for 72 hr. 10 μL the cell proliferation reagent CCK-8 (WST-8) was added into each well and incubated at 37° C./5% CO2 for 3-4 hr and the absorbance at 450 nm measured with an En Vision Plate Reader.
MV4-11 acute myeloid leukemia and SU-DHL-4 diffuse large B-cell lymphoma (ATCC, #CRL-2957) cells were cultured in medium supplemented with 10% fetal bovine serum at 37° C./5% CO2. 5×10^6 MV-4-11 or 1×10^7 SU-DHL-4 cells were collected and re-suspended in 0.1 mL of serum-free media with Matrigel (1:1 v/v) per mouse for subcutaneous inoculation in isoflurane anesthetized male BALB/c nude or C.B-17 scid mice, respectively (treated in accordance with AAALAC animal welfare guidelines). When the average tumor volumes reached 100-200 mm^3, tumor volume outliers were removed and the remaining animals randomly divided into groups of 6-8 with similar average tumor volumes in each group. […] The appearance and behavior of each mouse was observed and recorded daily. Body weights and tumor volumes were measured and recorded every 2-4 days and the results were expressed as group means±SEM. Pairwise statistical comparisons between groups were performed by one-way ANOVA, and p<0.05 was considered statistically significant.

[3] = 100 mg/kg intravenous 1×/week, after 4 weeks of dosing

Cc1sc2c(c1C)C(c1ccc(Cl)cc1)=N[C@@H](CC(=O)NC(C)c1ccc(CN3CCC(Cc4ccc(-n5c(O)nnc5-c5cc(C(C)C)c(O)cc5O)cc4)CC3)cc1)c1nnc(C)n1-2 (stereo in doubt) [Compound 82, 2-((S)-4-(4-chlorophenyl)-2,3,9-trimethyl-6H-thieno[3,2-f][1,2,4]triazolo[4,3-a][1,4]diazepin-6-yl)-N—((R)-1-(4-((4-(4-(3-(2,4-dihydroxy-5-isopropylphenyl)-5-hydroxy-4H-1,2,4-triazol-4-yl)benzyl)piperidin-1-yl)methyl)phenyl)ethyl)acetamide hydrochloride]
IC50 (HSP90α): 100 to 1000 nM | IC50 (MV4-11 cells; MV4-11, 72 hr, CCK-8): < 100 nM

Cc1sc2c(c1C)C(c1ccc(Cl)cc1)=N[C@H](CC(=O)N1CCC(CN3CCN(Cc4ccc(-n5c(O)nnc5-c5cc(C(C)C)c(O)cc5O)cc4)CC3)CC1)c1nnc(C)n1-2 [Compound 5, 2-((6R)-4-(4-chlorophenyl)-2,3,9-trimethyl-6H-thieno[3,2-f][1,2,4]triazolo[4,3-a][1,4]diazepin-6-yl)-1-(4-((4-(4-(3-(2,4-dihydroxy-5-isopropylphenyl)-5-hydroxy-4H-1,2,4-triazol-4-yl)benzyl)piperazin-1-yl)methyl)piperidin-1-yl)ethanone, trifluoroacetic acid]
Percentage BRD4 degradation vs untreated (BRD4): C (Degradation < 10%) | BRD4 degradation (in words) (BRD4): does not degrade BRD4 | IC50 (MYC protein): < 100 nM | IC50 (MV4-11 cells; MV4-11, 72 h): < 100 nM

Cc1sc2c(c1C)C(c1ccc(Cl)cc1)=N[C@@H](CC(=O)N1CCC(CN3CCN(Cc4ccc(-n5c(O)nnc5-c5cc(C(C)C)c(O)cc5O)cc4)CC3)CC1)c1nnc(C)n1-2 [Compound 40, 2-((6S)-4-(4-chlorophenyl)-2,3,9-trimethyl-6H-thieno[3,2-f][1,2,4]triazolo[4,3-a][1,4]diazepin-6-yl)-1-(4-((4-(4-(3-(2,4-dihydroxy-5-isopropylphenyl)-5-hydroxy-4H-1,2,4-triazol-4-yl)benzyl)piperazin-1-yl)methyl)piperidin-1-yl)ethanone, trifluoroacetic acid]
Percentage BRD4 degradation vs untreated (BRD4): A (Degradation > 50%) | ability to degrade BRD4 after pretreatment (BRD4; cells pretreated with a combination of a HSP90 binder and (+)-JQ1): significantly reduced | IC50 (MYC protein): < 100 nM

Cc1sc2c(c1C)C(c1ccc(Cl)cc1)=N[C@@H](CC(=O)NCC(=O)NCC1CCN(C(=O)C3CCN(Cc4ccc(-n5c(O)nnc5-c5cc(C(C)C)c(O)cc5O)cc4)CC3)C1)c1nnc(C)n1-2 (stereo partly drawn) [Compound 47, 2-((S)-4-(4-chlorophenyl)-2,3,9-trimethyl-6H-thieno[3,2-f][1,2,4]triazolo[4,3-a][1,4]diazepin-6-yl)-N-(2-(((1-(1-(4-(3-(2,4-dihydroxy-5-isopropylphenyl)-5-hydroxy-4H-1,2,4-triazol-4-yl)benzyl)piperidine-4-carbonyl)pyrrolidin-3-yl)methyl)amino)-2-oxoethyl)acetamide, trifluoroacetic acid]
BRD4 (% of control) (BRD4; 100 nM): 17.3 % of control | BRD4 (% of control) (BRD4; 300 nM): 9.6 % of control | BRD2 (% of control) (BRD2; 100 nM): 81.2 % of control | BRD2 (% of control) (BRD2; 300 nM): 102.2 % of control | BRD3 (% of control) (BRD3; 100 nM): 95.0 % of control | BRD3 (% of control) (BRD3; 300 nM): 91.4 % of control | IC50 (MV4-11 cells; MV4-11, 72 hr, CCK-8): < 100 nM

Cc1sc2c(c1C)C(c1ccc(Cl)cc1)=N[C@@H](CCN1CCC(CN3CCN(Cc4ccc(-n5c(O)nnc5-c5cc(C(C)C)c(O)cc5O)cc4)CC3)CC1)c1nnc(C)n1-2 [Compound 76, trifluoroacetic acid]
IC50 (HSP90α): 100 to 1000 nM | IC50 (BRD4 (BD1+BD2)): > 1000 nM | IC50 (MV4-11 cells; MV4-11, 72 h): < 100 nM

CCc1cc(-c2nnc(C(=O)NCC(F)(F)F)n2-c2ccc(CN3CCN(CC4CCN(C(=O)C[C@@H]5N=C(c6ccc(Cl)cc6)c6c(sc(C)c6C)-n6c(C)nnc65)CC4)CC3)cc2)c(O)cc1O.Cl [Compound 78, 4-(4-((4-((1-(2-((6S)-4-(4-chlorophenyl)-2,3,9-trimethyl-6H-thieno[3,2-f][1,2,4]triazolo[4,3-a][1,4]diazepin-6-yl)acetyl)piperidin-4-yl)methyl)piperazin-1-yl)methyl)phenyl)-5-(5-ethyl-2,4-dihydroxyphenyl)-N-(2,2,2-trifluoroethyl)-4H-1,2,4-triazole-3-carboxamide hydrochloride]
tumor growth inhibition (FIG. 4a) [1, 3]: significant tumor growth inhibition | tumor vs control (T/C) value [1, 3]: 28% | animal deaths and body weights (FIG. 4b) ([1]; any dose level, SU-DHL-4 xenograft): No animal deaths or significant effects on body weights were observed

(+)-JQ1 [reference compound]
BRD4 degradation (in words) (BRD4): no substantial BRD4 degradation was observed | tumor growth inhibition [2]: moderate tumor growth inhibition
